Experimental data reported in US20230026232A1, “AHR INHIBITORS AND USES THEREOF” (Ikena Oncology, Inc., priority 2019, published 2023).

Columns and labels:
[1] = Two stage gastric transfer non-sink dissolution test (0.1N HCl then FaSSIF); assay type: physicochemical; conditions: 100 RPM
Description: In vitro drug dissolution performance for both API forms and each SDI was evaluated by the two stage ‘gastric transfer’ non-sink dissolution test (Table 8), which simulates pH and bile salt concentrations for both gastric and intestinal exposure in a sample to perform assay. Pre-weighed SDI powder is briefly suspended in media (e.g., by 10 sec vortex mixing with 4.0 mL media) and transferred to a pre-heated (37° C.) volume of 50 mL of 0.1N HCl (aq) (simulated gastric fluid or SGF, pH ˜1.0, without pepsin or bile salts), in a USP Type 2 mini-vessel (100 mL total vessel volume) while stirring (paddles) at 100 rpm. […] Initial Compound A API measurements and SDI dissolution samples were determined utilizing a HPLC method (Table 7). […]

AHR [2] = target: T1, AHR (Homo sapiens, UniProt P35869); assay: IL-22 secretion by CD3/CD28 activated human T cells (Meso Scale Discovery); assay type: cell-based; design: endogenous in cells; conditions: 48 hours
T1 sequence (P35869 11-848): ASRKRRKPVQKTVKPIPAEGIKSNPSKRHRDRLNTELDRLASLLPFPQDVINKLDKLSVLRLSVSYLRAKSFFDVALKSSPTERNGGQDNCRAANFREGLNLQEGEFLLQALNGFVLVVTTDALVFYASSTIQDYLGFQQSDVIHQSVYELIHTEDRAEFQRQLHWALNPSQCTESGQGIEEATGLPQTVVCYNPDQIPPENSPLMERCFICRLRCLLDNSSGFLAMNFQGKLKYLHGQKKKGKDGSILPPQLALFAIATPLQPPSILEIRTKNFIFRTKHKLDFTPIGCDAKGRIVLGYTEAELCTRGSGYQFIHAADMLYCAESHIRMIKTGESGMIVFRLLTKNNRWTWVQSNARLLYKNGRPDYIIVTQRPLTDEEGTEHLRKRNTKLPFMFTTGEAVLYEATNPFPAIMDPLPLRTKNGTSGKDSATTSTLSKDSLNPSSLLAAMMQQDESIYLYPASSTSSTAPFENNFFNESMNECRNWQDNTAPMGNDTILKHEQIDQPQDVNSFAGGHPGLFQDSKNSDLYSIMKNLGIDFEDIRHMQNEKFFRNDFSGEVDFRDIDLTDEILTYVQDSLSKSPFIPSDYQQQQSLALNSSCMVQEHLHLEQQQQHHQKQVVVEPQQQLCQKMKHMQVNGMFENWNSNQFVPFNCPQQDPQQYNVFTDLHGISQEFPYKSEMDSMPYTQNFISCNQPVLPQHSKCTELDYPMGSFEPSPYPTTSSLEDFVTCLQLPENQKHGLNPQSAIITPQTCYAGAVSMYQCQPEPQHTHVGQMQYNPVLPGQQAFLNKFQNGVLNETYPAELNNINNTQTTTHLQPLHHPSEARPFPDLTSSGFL
Description: AHR plays a key role in immune cells and its' inhibition is proposed to reverse immune suppression and activate T cells. The ability of Compound A to inhibit AHR-dependent CYP1A1 expression and cytokine production was assessed in primary human T cells. AHR directly regulates the expression of the immune suppressive cytokine IL-22. Human T cells isolated from healthy donor PBMCs were activated with CD3/CD28 tetramer and incubated for 24 hours with Compound A. Cell pellets were processed for RNA isolation and CYP1A1 analysis by quantitative reverse-transcriptase polymerase chain reaction. For the cytokine analysis assay, CD3/CD28 activated T cells were treated with Compound A, and culture supernatants were collected after 48 hours for analysis of IL-22 levels using Meso Scale Discovery V-plex IL-22 plates. Compound A inhibited AHR-dependent gene expression in activated human T cells by decreasing expression of CYP1A1 in a concentration-dependent manner.

AHR [3] = target: T1, AHR; assay: Phase 1 study: pharmacodynamic modulation of AHR target genes in a whole blood assay; assay type: in vivo; design: endogenous in cells; conditions: all subjects in the 200 mg, 400 mg, and 800 mg cohorts
Description: Because the starting dose and any higher dose is expected to be near or at the pharmacologically active range, each subject is required to have blood drawn and tumor biopsies for secondary and exploratory pharmacodynamic endpoints. The blood and tumor tissue samples are used to confirm AHR target engagement. Individual subjects can be exempted from the tumor biopsy requirement upon discussion and prior agreement by the Sponsor. The initial sampling strategy is based on the predicted human pharmacodynamics of this compound. If in the course of evaluating the pharmacodynamics, it is determined that an alternative sampling scheme would be more informative, then that alternative sampling scheme can be implemented if the total amount of blood, blood draws, and tumor biopsies obtained for pharmacodynamics is not increased. Moreover, the total number of samples can be decreased at any time if the initial sampling scheme is considered unnecessarily intensive.
Pharmacodynamic (PD) modulation of AHR target genes were analyzed in a whole blood assay.

Structure (SMILES): CC(C)c1cnn2c(N[C@@H]3CCc4[nH]c5ccccc5c4C3)nc(-c3cncc(F)c3)nc12 [Compound A, (R)—N-(2-(5-fluoropyridin-3-yl)-8-isopropylpyrazolo[1,5-a][1,3,5]triazin-4-yl)-2,3,4,9-tetrahydro-1H-carbazol-3-amine]
- AUC35-210 FaSSIF (area under the curve after transfer to FaSSIF from 35 to 210 minutes) [1]: 2100 min*μgA/mL
- C210 (drug concentration at 180 minutes after transfer to FaSSIF) [1]: 4.5 μgA/mL
- IC50 (AHR [2]): 7 nM
- inhibition of expression of AHR target gene CYP1B1 (AHR [3]): Robust inhibition
